Among the data in patent US10544134B2, “4-substituted coumarin derivatives and preparation methods and uses thereof” (SI CHUAN UNIVERSITY, priority 2015, dated 2020) are IC50 values, retold here.

What all share (assay): Tumor cell proliferation inhibitory activity test in vitro (MTT)
For assay [1], the system named is breast cancer cell MCF-7. In kind it is cell-based. The settings on record: read-out: IC50 of compounds for tumor cells, Activity, MCF-7. The source says:
(§1) Human non-small cell lung cancer cell line NCI-H460, human small cell lung cancer cell line NCI-H446, human hepatocellular carcinoma cell strain HepG2, human colon carcinoma cell strain HCT116, human prostate cancer PC-3, human melanoma A375, colon carcinoma cell HCT-8, breast cancer cell MCF-7, ovarian cancer cell A2780s, drug-resistant ovarian cancer cell A2780/T, drug-resistant colon cancer cell HCT-8/T and doxorubicin-resistant breast cancer cell MCF-7/ADR are obtained from American Type Culture Collection (ATCC) and are cultured and preserved by the cell bank of State Key Laboratory of Biotherapy of Sichuan University. Above tumor cells are routinely cultured in DMEM culture medium containing 10% fetal bovine serum, 100 U·mL-1 penicillin and 100 mg·L−1 streptomycin, and in an incubator at 37° C. and with saturated humidity and 5% CO2 concentration.
(§2) Fill diluted cell suspension in the 96-well plate with 1000-10000 cells per well and incubate it in CO2 incubator overnight.
(§3) Replace with new medium containing various concentrations of compounds to be tested for the test group and replace with fresh medium with equal volume for the control group, each group is arranged with 5 parallel wells and incubated in an incubator at 37° C. and with 5% CO2 concentration.
(§4) Discard the supernatant after 72 hours, add 200 μL freshly prepared serum-free medium containing 0.2 mg/mL MTT into each well, continue to incubate at 37° C. for 1-4 hours, then stop incubation, carefully remove the culture supernatant in the wells and add 200 uL DMSO (dimethyl sulfoxide), oscillate with a miniature ultrasonic oscillator for 15-20 minutes to make the crystal fully dissolved and mixed. Determine OD values using a microplate reader at 570 nm with a reference wavelength of 450 nm.
(§5) Draw curves based on the growth inhibition rate for tumor cells of the same sample with different concentrations to get dose-response curve, so as to calculate IC50. Repeat each test for 3 times, measure IC50 (μM) or nanomolor concentration (nM) of compounds in different tumor cells.

The test system of assay [2] is colon carcinoma cell HCT116. It is filed as cell-based, human. The settings on record: read-out: IC50 of compounds for tumor cells, Activity, HCT116.
Excerpt: as §1, §2, §3, §4, §5

Assay [3] deals with prostate cancer PC-3. In kind it is cell-based, human. Conditions: 72 hours, read-out: IC50 of compounds for tumor cells, Activity, PC-3.
Excerpt: as §1, §2, §3, §4, §5

The subject of assay [4] is hepatocellular carcinoma cell HEPG2. In kind it is cell-based, human. Conditions: read-out: IC50 of compounds for tumor cells, Activity, HEPG2.
Excerpt: as §1, §2, §3, §4, §5

Assay [5] relates to non-small cell lung cancer cell line NCI-H460. It is filed as cell-based, human. Conditions: read-out: IC50 of compounds for tumor cells, Activity, H460.
Excerpt: as §1, §2, §3, §4, §5

The test system of assay [6] is melanoma A375. In kind it is cell-based, human. The settings on record: read-out: IC50 of compounds for tumor cells, Activity, A375.
Excerpt: as §1, §2, §3, §4, §5

Setting [7] is: Homo sapiens, HCT-116, 72 hours.
Setting [8] is: Homo sapiens, NCI-H460, 72 hours.

What is called IC50 is the concentration needed to halve the response being measured.

Read-outs that look alike come from different tables or passages of the source. Where only a bound is given, the exact number is not on record here.

For `COc1ccc(N(C)c2cc(=O)oc3ccccc23)cc1OCCN1CCOCC1` [COUM-49, 4-(N-methyl-N-(4-methoxy-3-(2-morpholinoethoxy)-benzene)-amino) Coumarin], the IC50 in assay [1] (72 hours), in assay [2] (72 hours), in assay [3], in assay [4] (72 hours), in assay [5] (72 hours) and in assay [6] (72 hours) was 0.1 to 5 µM in each case.
Regarding `COc1ccc(N(C)c2cc(=O)oc3ccccc23)cc1` [COUM-43, 4-(N-methyl-N-(4-methoxybenzene)-amino) coumarin], the IC50 in assay [1] (Homo sapiens, MCF7, 72 hours) lay within 0.01 to 0.1 µM; in assay [2] (setting [7]) it was 0.01 to 0.1 µM; in assay [3] (Homo sapiens) it was 0.01 to 0.1 µM; in assay [4] (Homo sapiens, HepG2, 72 hours), 0.01 to 0.1 µM; in assay [5] (setting [8]) it was 0.01 to 0.1 µM; in assay [6] (Homo sapiens, A-375, 72 hours), 0.01 to 0.1 µM.
Regarding `COc1ccc(N(C)c2cc(=O)oc3cc(OC)ccc23)cc1` [COUM-40, 4-(N-methyl-N-(4-methoxybenzene)-amino)-7-methoxycoumarin], the IC50 lay in the range of 0.01 to 0.1 µM in assay [1] (Homo sapiens, MCF7, 72 hours); 0.01 to 0.1 µM in assay [2] (setting [7]); 0.01 to 0.1 µM in assay [3] (Homo sapiens); 0.01 to 0.1 µM in assay [4] (Homo sapiens, HepG2, 72 hours); 0.01 to 0.1 µM in assay [5] (setting [8]); 0.01 to 0.1 µM in assay [6] (Homo sapiens, A-375, 72 hours).
Consider `COc1ccc2c(-c3ccc(-c4ccccc4OC)o3)cc(=O)oc2c1` [COUM-26, 4-(5-(2-methoxybenzene)furan-2-yl)-7-methoxyl-coumarin], for which the IC50 in assay [1] (Homo sapiens, MCF7, 72 hours) was above 5 µM; in assay [2] (setting [7]) it was above 5 µM; in assay [3] (Homo sapiens) it was above 5 µM; in assay [4] (Homo sapiens, HepG2, 72 hours), above 5 µM; in assay [5] (setting [8]) it was above 5 µM; in assay [6] (Homo sapiens, A-375, 72 hours), above 5 µM.
Take `COc1ccc(N(C)c2cc(=O)oc3ccccc23)cc1OC(=O)C(CCSC)NC(=O)OC(C)(C)C` (stereo not drawn) [COUM-86, 4-(N-methyl-N-(4-methoxy-3-(Boc-methionine)benzene)amino) Coumarin]: the IC50 was 0.1 to 5 µM in assay [1] (Homo sapiens, MCF7, 72 hours); 0.1 to 5 µM in assay [2] (setting [7]); 0.1 to 5 µM in assay [3] (Homo sapiens); 0.1 to 5 µM in assay [4] (Homo sapiens, HepG2, 72 hours); 0.1 to 5 µM in assay [5] (setting [8]); 0.1 to 5 µM in assay [6] (Homo sapiens, A-375, 72 hours).
`COc1ccc2c(-c3ccc(-c4cc(OC)c(OC)c(OC)c4)o3)cc(=O)oc2c1` [COUM-23, 4-(5-(3,4,5-trimethoxybenzene)furan-2-yl)-7-methoxyl-coumarin]: the IC50 was above 5 µM in assay [1] (Homo sapiens, MCF7, 72 hours); above 5 µM in assay [2] (setting [7]); above 5 µM in assay [3] (Homo sapiens); above 5 µM in assay [4] (Homo sapiens, HepG2, 72 hours); above 5 µM in assay [5] (setting [8]); above 5 µM in assay [6] (Homo sapiens, A-375, 72 hours).
For the molecule `CCOC(=O)c1cccc(-c2ccc(-c3cc(=O)oc4ccccc34)s2)c1` [COUM-32], the IC50 is above 5 µM in assay [1] (Homo sapiens, MCF7, 72 hours); above 5 µM in assay [2] (setting [7]); above 5 µM in assay [3] (Homo sapiens); above 5 µM in assay [4] (Homo sapiens, HepG2, 72 hours); above 5 µM in assay [5] (setting [8]); above 5 µM in assay [6] (Homo sapiens, A-375, 72 hours).
Consider `COc1ccc(-c2ccc(-c3cc(=O)oc4ccccc34)o2)cc1` [COUM-15, 4-(5-(4-methoxyphenyl)furan-2-yl)-coumarin], for which the IC50 in assay [1] (Homo sapiens, MCF7, 72 hours) was above 5 µM; in assay [2] (setting [7]), above 5 µM; in assay [3] (Homo sapiens) it was above 5 µM; in assay [4] (Homo sapiens, HepG2, 72 hours) it was above 5 µM; in assay [5] (setting [8]), above 5 µM; in assay [6] (Homo sapiens, A-375, 72 hours) it was above 5 µM.
In the case of `CCN(CC)c1ccc2c(N(C)c3ccc(OC)cc3)cc(=O)oc2c1` [COUM-41, 4-(N-methyl-N-(4-methoxybenzene)-amino)-7-diethylaminocoumarin], the IC50 in assay [1] (Homo sapiens, MCF7, 72 hours) is 0.01 to 0.1 µM; in assay [2] (setting [7]), 0.01 to 0.1 µM; in assay [3] (Homo sapiens), 0.01 to 0.1 µM; in assay [4] (Homo sapiens, HepG2, 72 hours), 0.01 to 0.1 µM; in assay [5] (setting [8]), 0.01 to 0.1 µM; in assay [6] (Homo sapiens, A-375, 72 hours) it was 0.01 to 0.1 µM.
For `O=c1cc(-c2ccc(-c3cccc(Cl)c3)s2)c2ccccc2o1` [COUM-8, 4-(5-(3-chlorobenzene)thiophene-2-yl)-coumarin], the IC50 was above 5 µM in assay [1] (Homo sapiens, MCF7, 72 hours); above 5 µM in assay [2] (setting [7]); above 5 µM in assay [3] (Homo sapiens); above 5 µM in assay [4] (Homo sapiens, HepG2, 72 hours); above 5 µM in assay [5] (setting [8]); above 5 µM in assay [6] (Homo sapiens, A-375, 72 hours).
